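96-well plates; 48 h exposure; 5 concentrations. Endpoints by linear interpolation between flanking doses. Not reached: highest tested concentration assigned. GI50 = concentration required for 50% inhibition of growth.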 The source made the active and inactive calls. Rule as the data show it: active = GI50 up to about 1.1 µM and inactive = higher.
Tests used:
Assay in all cases: growth of human tumour cells (NCI), 48 h
DMS-273 = tested on: DMS-273
SF-539 = tested on: SF-539
HCC 2998 = tested on: HCC 2998
CAKI-1 = tested on: CAKI-1
SNB-78 = tested on: SNB-78
ACHN = tested on: ACHN
IGROV-1 = tested on: IGROV-1
DLD-1 = tested on: DLD-1
NCI-H23 = tested on: NCI-H23
UO-31 = tested on: UO-31
HCT-116 = tested on: HCT-116
HT-29 = tested on: HT-29
NCI-H460 = tested on: NCI-H460
SW-620 = tested on: SW-620
CCRF-CEM = tested on: CCRF-CEM
SNB-75 = tested on: SNB-75
DMS-114 = tested on: DMS-114
LOX IMVI = tested on: LOX IMVI
NCI-H226 = tested on: NCI-H226
RXF 393 = tested on: RXF 393
COLO 205 = tested on: COLO 205
SF-268 = tested on: SF-268
RXF 631 = tested on: RXF 631
A549 = tested on: A549
NCI-H522 = tested on: NCI-H522
OVCAR-5 = tested on: OVCAR-5
SF-295 = tested on: SF-295
HCT-15 = tested on: HCT-15
SN12C = tested on: SN12C
OVCAR-4 = tested on: OVCAR-4
TK-10 = tested on: TK-10
SK-MEL-5 = tested on: SK-MEL-5
UACC-62 = tested on: UACC-62
U-251 = tested on: U-251
KM12 = tested on: KM12
K562 = tested on: K562
MOLT-4 = tested on: MOLT-4
EKVX = tested on: EKVX
Malme-3M = tested on: Malme-3M
UACC-257 = tested on: UACC-257
LXFL 529 = tested on: LXFL 529
SK-OV-3 = tested on: SK-OV-3
A498 = tested on: A498
SNB-19 = tested on: SNB-19
SR = tested on: SR
M14 = tested on: M14
SK-MEL-28 = tested on: SK-MEL-28
KM-20L2 = tested on: KM-20L2
HOP-18 = tested on: HOP-18
OVCAR-8 = tested on: OVCAR-8
HOP-62 = tested on: HOP-62
M19-MEL = tested on: M19-MEL
786-0 = tested on: 786-0
SK-MEL-2 = tested on: SK-MEL-2
RPMI-8226 = tested on: RPMI-8226
OVCAR-3 = tested on: OVCAR-3
HOP-92 = tested on: HOP-92
HL-60 = tested on: HL-60

SMILES: COc1cc(NCC(C#N)C#N)ccc1/N=N/c1ccc([N+](=O)[O-])cc1
- GI50 (DMS-273): > 100 µM (inactive)
- GI50 (SF-539): > 100 µM (inactive)
- GI50 (HCC 2998): > 100 µM (inactive)
- GI50 (CAKI-1): > 100 µM (inactive)
- GI50 (SNB-78): > 100 µM (inactive)
- GI50 (ACHN): > 100 µM (inactive)
- GI50 (IGROV-1): > 100 µM (inactive)
- GI50 (DLD-1): > 100 µM (inactive)
- GI50 (NCI-H23): > 100 µM (inactive)
- GI50 (UO-31): > 100 µM (inactive)
- GI50 (HCT-116): > 100 µM (inactive)
- GI50 (HT-29): > 100 µM (inactive)
- GI50 (NCI-H460): > 100 µM (inactive)
- GI50 (SW-620): > 100 µM (inactive)
- GI50 (CCRF-CEM): > 100 µM (inactive)
- GI50 (SNB-75): 30.7 µM (inactive)
- GI50 (DMS-114): 65.2 µM (inactive)
- GI50 (LOX IMVI): > 100 µM (inactive)
- GI50 (NCI-H226): > 100 µM (inactive)
- GI50 (RXF 393): > 100 µM (inactive)
- GI50 (COLO 205): > 100 µM (inactive)
- GI50 (SF-268): > 100 µM (inactive)
- GI50 (RXF 631): > 100 µM (inactive)
- GI50 (A549): > 100 µM (inactive)
- GI50 (NCI-H522): 46.5 µM (inactive)
- GI50 (OVCAR-5): > 100 µM (inactive)
- GI50 (SF-295): > 100 µM (inactive)
- GI50 (HCT-15): > 100 µM
- GI50 (SN12C): > 100 µM (inactive)
- GI50 (OVCAR-4): > 100 µM (inactive)
- GI50 (TK-10): > 100 µM (inactive)
- GI50 (SK-MEL-5): > 100 µM (inactive)
- GI50 (UACC-62): > 100 µM (inactive)
- GI50 (U-251): > 100 µM (inactive)
- GI50 (KM12): > 100 µM (inactive)
- GI50 (K562): 91.2 µM (inactive)
- GI50 (MOLT-4): 58.3 µM (inactive)
- GI50 (EKVX): > 100 µM (inactive)
- GI50 (Malme-3M): > 100 µM (inactive)
- GI50 (UACC-257): > 100 µM (inactive)
- GI50 (LXFL 529): 37.6 µM (inactive)
- GI50 (SK-OV-3): > 100 µM (inactive)
- GI50 (A498): > 100 µM (inactive)
- GI50 (SNB-19): 65.5 µM (inactive)
- GI50 (SR): 49.5 µM (inactive)
- GI50 (M14): > 100 µM (inactive)
- GI50 (SK-MEL-28): > 100 µM (inactive)
- GI50 (KM-20L2): > 100 µM (inactive)
- GI50 (HOP-18): > 100 µM (inactive)
- GI50 (OVCAR-8): > 100 µM (inactive)
- GI50 (HOP-62): > 100 µM (inactive)
- GI50 (M19-MEL): > 100 µM (inactive)
- GI50 (786-0): > 100 µM (inactive)
- GI50 (SK-MEL-2): > 100 µM (inactive)
- GI50 (RPMI-8226): 49.1 µM (inactive)
- GI50 (OVCAR-3): 64.3 µM (inactive)

SMILES: C/C=C(\C)C(=O)N1c2ccccc2CC1c1c(C)[nH]c2ccccc12 (stereo unspecified)
- GI50 (DMS-273): 39.1 µM (inactive)
- GI50 (SF-539): 50.8 µM (inactive)
- GI50 (HCC 2998): > 100 µM (inactive)
- GI50 (CAKI-1): 48.8 µM (inactive)
- GI50 (SNB-78): 86.5 µM (inactive)
- GI50 (ACHN): 55.8 µM (inactive)
- GI50 (IGROV-1): 39.6 µM (inactive)
- GI50 (DLD-1): 8.18 µM (inactive)
- GI50 (NCI-H23): 55.2 µM (inactive)
- GI50 (UO-31): 36.1 µM (inactive)
- GI50 (HCT-116): 86.9 µM (inactive)
- GI50 (HT-29): 38.4 µM (inactive)
- GI50 (NCI-H460): 37.9 µM (inactive)
- GI50 (SW-620): > 100 µM (inactive)
- GI50 (CCRF-CEM): 42.5 µM (inactive)
- GI50 (SNB-75): 35 µM (inactive)
- GI50 (LOX IMVI): > 100 µM (inactive)
- GI50 (HOP-92): 12.2 µM (inactive)
- GI50 (NCI-H226): > 100 µM (inactive)
- GI50 (RXF 393): > 100 µM (inactive)
- GI50 (COLO 205): 23.3 µM (inactive)
- GI50 (RXF 631): > 100 µM (inactive)
- GI50 (A549): > 100 µM (inactive)
- GI50 (NCI-H522): 42.3 µM (inactive)
- GI50 (OVCAR-5): 37.3 µM (inactive)
- GI50 (SF-295): 40 µM (inactive)
- GI50 (HCT-15): 37 µM
- GI50 (SN12C): > 100 µM (inactive)
- GI50 (OVCAR-4): 4.15 µM (inactive)
- GI50 (TK-10): 73.3 µM (inactive)
- GI50 (SK-MEL-5): > 10 µM (inactive)
- GI50 (UACC-62): 40.7 µM (inactive)
- GI50 (U-251): 91.6 µM (inactive)
- GI50 (KM12): 26.7 µM (inactive)
- GI50 (K562): 39.6 µM (inactive)
- GI50 (MOLT-4): 19.9 µM (inactive)
- GI50 (EKVX): 71.1 µM (inactive)
- GI50 (Malme-3M): 32 µM (inactive)
- GI50 (UACC-257): 25.2 µM (inactive)
- GI50 (LXFL 529): 72.9 µM (inactive)
- GI50 (SK-OV-3): > 100 µM (inactive)
- GI50 (A498): > 100 µM (inactive)
- GI50 (SNB-19): > 100 µM (inactive)
- GI50 (SR): > 100 µM (inactive)
- GI50 (HL-60): 15.1 µM (inactive)
- GI50 (M14): 39.3 µM (inactive)
- GI50 (SK-MEL-28): > 100 µM (inactive)
- GI50 (KM-20L2): 47.4 µM (inactive)
- GI50 (OVCAR-8): 83.8 µM (inactive)
- GI50 (HOP-62): > 100 µM (inactive)
- GI50 (M19-MEL): 61.7 µM (inactive)
- GI50 (786-0): > 100 µM (inactive)
- GI50 (SK-MEL-2): 19.3 µM (inactive)
- GI50 (RPMI-8226): 25.3 µM (inactive)
- GI50 (OVCAR-3): 21.5 µM (inactive)

— ChEMBL document CHEMBL1201862, “PubChem BioAssay data set” (2004)
